Results on 1 sequence are retold here after US20240051997A1, “SAP AND PEPTIDOMIMETIC COMPOSITIONS FOR REDUCING SYMPTOMS OF INFLAMMATION” (Arch Biosurgery, Inc., priority 2018, published 2024).

The subject of this experiment is olfactory bulb inflammation, GFAP (reactive astrocytes). The experiment in a line: Olfactory bulb injury model (transection), GFAP immunohistochemistry. The format is in vivo, Sprague-Dawley rat. As to conditions: rat olfactory bulb, days 2-14. As for the experimental part: The anti-inflammatory effects of EARA-16 (SEQ ID NO: 89) and RADA-16 (SEQ ID NO: 1) were examined using an olfactory bulb injury model. Levels of inflammation were assayed through immunohistochemical staining for glial fibrillary acidic protein (GFAP) as an indicator of reactive astrocytes.
In brief, the olfactory bulbs of adult Sprague-Dawley rats were unilaterally transected and the cuts were then treated with either saline as a control, or one of RADA-16 (SEQ ID NO: 1) or EARA-16 (SEQ ID NO: 89) solutions (each used at 1% and 3%). The SAP materials were injected into the cuts post transection at the time of surgery. After 2, 7 or 14 days, the animals were sacrificed.
A more detailed protocol is as follows: adult Sprague-Dawley rats were anesthetized with a mixture of ketamine (80 mg/kg, i. p.) and xylazine (8 mg/kg, i. p.). The head was shaved and a thorough disinfection of the head surface was carried out with iodine 5% solution. The bilateral olfactory bulbs were exposed by drilling two burr holes (2 mm diameter, 8 mm anterior to the bregma) on either side at a distance of 2 mm from the midline of the frontal bone in the region overlying the olfactory bulbs. A cataract knife with a blunted end and one sharpened edge was used for surgery. The cut was performed on the middle of olfactory bulb. The blunted edge of the knife was inserted along the middle line of the olfactory bulb to prevent damage of the sagittal sinus, until the tip of the knife lightly touched the bottom of the brain without penetration of the dura. The knife was then moved laterally to transect the bulb until it reached the lateral edge of the hole. The knife was then rotated and pulled out to have a complete cut of the bulb at lateral side. This procedure was modified from the method described in several previous studies attempting to isolate the olfactory bulb from other parts of the brain (Ahrens & Freeman 2001; Allison 1953; Chaput 1983; Freeman 1968; Koliatsos et al 2004; Munirathinam et al 1997).
After performing the cut, one of the solutions was used to treat the injury site: either 10 μl saline (control group) or the EARA-16 (SEQ ID NO: 89) or RADA-16 (SEQ ID NO: 1) SAP (at a concentration of 1% and 3%) was injected evenly into the wound site using a self-constructed hydraulic pressure injection system without micro syringe. This technique was modified from similar methods as described by Bullier and others (Bullier et al 1980; Fish & Rhoades 1981; Kratskin et al 1997; Meyers & Snow 1981; Price et al 1977; Shipley 1982). Care was taken to control the speed of the injection of the saline or the SAP. After the injection, the wound was closed and the animals were placed in a warm place for recovery before they were brought back to their home cages. […]

On to “RADARADARADARADA [RADA-16, self-assembling peptide]”, for which the “time course of reactive astrocyte activation / inflammation (GFAP)” value reads like this: (1% solution) “increased activation of reactive astrocytes on day 7 which subsequently reduced by day 14”; (3% solution) “increased activation of reactive astrocytes on day 7 which subsequently reduced by day 14”.
